Measurements: US11096891B2, “Hybrid muco-adhesive delivery systems and use thereof” (TECHNION RESEARCH & DEVELOPMENT FOUNDATION LIMITED, priority 2016, dated 2021)
Values belong to the compound of their own block, whether it stands above or below them.

Key:
[1] = Liposome release from alginate pastes spread on tongue tissue; assay type: physicochemical; details: 3% Ca+2-Ba+2 cross-linked alginate paste, simulated saliva buffer pH 6.8, 37° C.
Experimental: Alginate-fluorescein containing liposomes pastes were prepared by dissolving 30, 40 or 50 mg alginate-fluorescein in 0.4 mL DDW and 0.6 mL of fluorescently labeled liposome solution. The mixtures were stirred until homogenous viscous solutions were achieved. Alginate-fluorescein paste (50 μL) was spread on porcine's tongue tissue (1 cm×1 cm) which was glued with cyanoacrylate glue to a weight and placed in a vail with […] saliva buffer, pH 6.8. One sample (paste on a tissue) was inserted into dialysis bag and the absorbance of this sample was used as a blank. The vail was immersed in a shaking water/ethylene-glycole bath at 37° C. and 25 rpm. An aliquot (200 μL) of eluted liposome medium was removed for quantification; this volume was replaced with fresh buffer. The release of alginate-fluorescein and liposome was quantified by measuring the fluorescence (alginate-fluorescein: λex420 nm, λem530 nm, labeled liposome: λex530 nm, […]) of the release media at different time points.
pastes were prepared by dissolving 40 mg alginate or alginate-SH, or 300 mg alginate-PEGAc.
Alginate paste (50 μL) was spread on a piece of tissue which was glued with cyanoacrylte glue to a weight and placed in a vail with 10 ml 0.01M PBS, pH=6.8. […] An aliquot (200 μL) of eluted liposome medium was removed for quantification; this volume was replaced with fresh buffer. […]

CAL-27 cells [2] = experiment: CellTiter-Glo viability, alginate pastes on permeable tissue culture inserts; assay type: cell-based, human; details: alginate paste hybrid system
Experimental: In order to examine the effectivity of the proposed hybrid system, alginate pastes with empty liposomes, free drug and drugs loaded liposomes were tested for their effect on CAL-27 cells using permeable tissue culture inserts. Cell viability was determined using the Cell Titer-Glo® assay (see Table 6 below showing the relative cell viability obtained after 24 and 48 hr of treatment with hybrid system and FIG. 25).

CAL-27 cells [3] = experiment: MTT cell viability assay; assay type: cell-based, human; details: 24 and 48 hr
Experimental: The cytotoxicity of chemotherapeutic drugs to CAL-27 cells was determined using the MTT assay. Cells were plated in 96-well plate in density of 50,000 cells per well in a total volume of 200 μl medium. After 24 hours the cells were treated with different drugs and liposomes for 24 h and 48 h. All experiments were done in quadruplicates.
Cell viability was evaluated by MTT assay, a colorimetric assay based on the ability of viable cells to reduce a soluble yellow MTT substrate to a blue formazan crystal by mitochondrial succinate dehydrogenase activity of viable cells. This test is a good index of mitochondrial activity and thus of cell viability. After 24 or 48 hr of treatment, the medium was aspirated, and 100 μL of MTT, 1 mg/mL in PBS were added to each well. After MTT addition the plates were covered and returned to the incubator at 37° C. for 2 hr, the optimal time for formazan product formation. […] The absorbance was measured at 570 nm and the background absorbance measured at 690 nm.
In exemplary procedures, alginate gels incorporating either empty or doxorubicin loaded liposomes were prepared as described above, in a volume of 100 μL each with liposome proportion of 6.7%, 16.7% and 33.3% (v/v). […] Viability was measured using the MTT assay. […]

[4] = Release of fluorescent dye from alginate paste on porcine tongue under shear flow; assay type: physicochemical; details: after two hours, 0.01M PBS pH 6.8, 37° C.
From the text: A home-made apparatus was designed, based on a flow cell for assessing the mucoadhesion of pastes and viscous polymer solutions under shear flow conditions. The experiment was set up by mixing viscous solution of alginate with the fluorescent dye solution, by that, the fluorescent dye was non-covalently attached to alginate. The pastes were spread on a slice of porcine tongue simulating the target tissue. The tissue holding the paste was placed in a vial and was subject to shear flow while immersed in PBS solution (see FIG. 1A).

Release of doxorubicin from cross-linked pastes [1]: similar, and sustained
Compound: COc1cccc2c1C(=O)c1c(O)c3c(c(O)c1C2=O)C[C@@](O)(C(=O)CO)C[C@@H]3O[C@H]1C[C@H](N)[C@H](O)[C@H](C)O1 [Free Doxorubicin, doxorubicin]
Relative cell viability 24 h (CAL-27 cells [2]; 24 h): 0.04 ± 0.008
Relative cell viability 48 h (CAL-27 cells [2]; 48 h): 0.00 ± 0.000

Compound: O=c1[nH]cc(F)c(=O)[nH]1 [5-FU free drug, 5-fluorouracil]
Toxicity to cancer cells, drug loaded liposomes versus free drug (CAL-27 cells [3]): slower in action and therefore seemed less efficient within the 48 hr experiment

Release of fluorescent marker to external PBS solution [4]: completely released
Compound: CCN(CC)c1ccc2c(-c3ccc(S(=O)(=O)O)cc3S(=O)(=O)[O-])c3ccc(=[N+](CC)CC)cc-3oc2c1 [fluorescent marker, sulforhodamine B]
